In article doi:10.1101/2020.11.18.387670v2 (biorxiv, 2020):

Legend:
[1] = target: TRIM28 (Homo sapiens, UniProt Q13263); test: SPR; type: binding
[2] = target: T1, α-enolase (ENO1) (Homo sapiens, UniProt P06733, K330E); test: SPR; type: binding
[3] = target: T2, α-enolase (ENO1) (Homo sapiens, UniProt P06733); test: PKM1-coupled luminescent Kinase-Glo assay; type: biochemical
[4] = target: T1, α-enolase (ENO1); test: PKM1-coupled luminescent Kinase-Glo assay; type: biochemical
[5] = target: T2, α-enolase (ENO1); test: SPR; type: binding
[6] = target: PKM2 (Homo sapiens, UniProt P14618); test: SPR; type: binding
[7] = target: GAPDH (Homo sapiens, UniProt P04406); test: NADH absorbance at […] nm; type: biochemical; settings: activator, allosteric suggested; 1 mM NAD+, 2.88 mM G3P, 20 mM arsenate, pH 8.5
Sequence of GAPDH (P04406 2-335): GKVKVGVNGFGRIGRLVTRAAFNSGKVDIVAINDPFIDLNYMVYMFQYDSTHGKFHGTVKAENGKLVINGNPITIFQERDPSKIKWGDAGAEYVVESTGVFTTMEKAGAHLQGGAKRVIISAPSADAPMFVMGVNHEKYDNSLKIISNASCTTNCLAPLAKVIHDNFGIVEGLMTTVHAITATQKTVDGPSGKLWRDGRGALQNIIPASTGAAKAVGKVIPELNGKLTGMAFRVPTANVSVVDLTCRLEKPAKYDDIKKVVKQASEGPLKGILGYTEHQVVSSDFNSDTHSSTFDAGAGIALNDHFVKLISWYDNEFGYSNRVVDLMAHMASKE

T1 sequence (P06733 whole entry K330E): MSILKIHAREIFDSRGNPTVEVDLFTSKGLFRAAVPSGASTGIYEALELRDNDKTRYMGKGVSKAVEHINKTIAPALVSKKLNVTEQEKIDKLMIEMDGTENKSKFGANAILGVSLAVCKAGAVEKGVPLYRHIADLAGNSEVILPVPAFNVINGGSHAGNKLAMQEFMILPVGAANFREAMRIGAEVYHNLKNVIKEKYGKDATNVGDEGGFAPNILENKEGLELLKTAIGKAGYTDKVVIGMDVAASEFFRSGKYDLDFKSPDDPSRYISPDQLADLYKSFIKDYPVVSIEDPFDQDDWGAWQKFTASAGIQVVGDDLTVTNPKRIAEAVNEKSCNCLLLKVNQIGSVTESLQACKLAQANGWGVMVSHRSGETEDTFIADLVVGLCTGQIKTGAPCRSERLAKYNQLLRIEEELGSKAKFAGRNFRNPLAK
T2 sequence (P06733 whole entry): as the sequence (P06733 whole entry K330E) above, with E330K counted along it
Sequence of PKM2 (P14618 2-531): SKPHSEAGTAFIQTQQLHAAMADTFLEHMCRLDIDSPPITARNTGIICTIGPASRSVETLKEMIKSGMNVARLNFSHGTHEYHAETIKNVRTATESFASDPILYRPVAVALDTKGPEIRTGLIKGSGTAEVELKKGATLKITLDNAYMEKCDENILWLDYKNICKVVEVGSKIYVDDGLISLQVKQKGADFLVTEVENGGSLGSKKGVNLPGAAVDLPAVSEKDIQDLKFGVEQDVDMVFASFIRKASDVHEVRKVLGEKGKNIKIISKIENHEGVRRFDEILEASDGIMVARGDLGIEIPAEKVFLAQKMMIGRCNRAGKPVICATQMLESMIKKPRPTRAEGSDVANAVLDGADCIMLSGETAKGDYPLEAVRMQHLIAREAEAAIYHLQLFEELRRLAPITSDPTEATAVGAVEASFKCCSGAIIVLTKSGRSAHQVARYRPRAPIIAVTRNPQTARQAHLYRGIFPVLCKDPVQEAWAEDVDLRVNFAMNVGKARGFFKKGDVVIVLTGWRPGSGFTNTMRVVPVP
Sequence of TRIM28 (Q13263 whole entry): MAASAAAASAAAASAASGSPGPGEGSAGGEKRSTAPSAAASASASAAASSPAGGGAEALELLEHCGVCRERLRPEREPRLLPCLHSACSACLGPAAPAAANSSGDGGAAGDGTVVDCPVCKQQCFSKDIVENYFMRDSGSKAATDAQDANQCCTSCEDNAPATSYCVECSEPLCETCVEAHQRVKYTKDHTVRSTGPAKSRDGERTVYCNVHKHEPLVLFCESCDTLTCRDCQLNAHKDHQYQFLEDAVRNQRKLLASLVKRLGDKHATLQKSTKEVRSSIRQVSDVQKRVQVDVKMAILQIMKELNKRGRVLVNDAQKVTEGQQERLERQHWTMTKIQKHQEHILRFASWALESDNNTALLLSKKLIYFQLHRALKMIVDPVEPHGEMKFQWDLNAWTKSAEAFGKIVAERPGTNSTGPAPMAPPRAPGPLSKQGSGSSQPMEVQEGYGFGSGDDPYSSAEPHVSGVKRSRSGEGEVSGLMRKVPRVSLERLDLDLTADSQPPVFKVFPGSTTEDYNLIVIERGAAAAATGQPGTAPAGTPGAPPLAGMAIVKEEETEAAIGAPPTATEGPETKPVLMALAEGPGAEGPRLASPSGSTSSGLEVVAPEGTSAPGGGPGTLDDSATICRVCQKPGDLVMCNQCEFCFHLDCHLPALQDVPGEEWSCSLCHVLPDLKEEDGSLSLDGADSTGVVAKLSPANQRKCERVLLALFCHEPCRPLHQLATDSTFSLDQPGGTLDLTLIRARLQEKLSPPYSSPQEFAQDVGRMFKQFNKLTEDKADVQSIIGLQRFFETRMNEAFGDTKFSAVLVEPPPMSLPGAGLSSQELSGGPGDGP

C[C@H](O)C(=O)O [lactate]
Kd [1]: 41.2 nM

O=CC(O)COP(=O)(O)O (racemic) [G3P]
Kd [2]: 10.3 µM
IC50 [3]: 113 µM
IC50 [4]: 1.17 mM
Kd [5]: 25.4 nM

O=C(O)[C@H](O)COP(=O)(O)O [3PG]
Kd [6]: 260 nM

CC(=O)C(=O)O [pyruvate]
NADH absorbance at 340 nm [7]: pyruvate can bind to and activate GAPDH
